According to article PMC5883864 (Chemical Science, 2017):

Target: glucose oxidase (GOx) (Aspergillus niger, UniProt P13006)
Experiment: HRP-coupled chromogenic assay of H2O2
Type: biochemical
Conditions: free enzyme; O2 co-substrate

Chain of glucose oxidase (GOx) (P13006 17-605): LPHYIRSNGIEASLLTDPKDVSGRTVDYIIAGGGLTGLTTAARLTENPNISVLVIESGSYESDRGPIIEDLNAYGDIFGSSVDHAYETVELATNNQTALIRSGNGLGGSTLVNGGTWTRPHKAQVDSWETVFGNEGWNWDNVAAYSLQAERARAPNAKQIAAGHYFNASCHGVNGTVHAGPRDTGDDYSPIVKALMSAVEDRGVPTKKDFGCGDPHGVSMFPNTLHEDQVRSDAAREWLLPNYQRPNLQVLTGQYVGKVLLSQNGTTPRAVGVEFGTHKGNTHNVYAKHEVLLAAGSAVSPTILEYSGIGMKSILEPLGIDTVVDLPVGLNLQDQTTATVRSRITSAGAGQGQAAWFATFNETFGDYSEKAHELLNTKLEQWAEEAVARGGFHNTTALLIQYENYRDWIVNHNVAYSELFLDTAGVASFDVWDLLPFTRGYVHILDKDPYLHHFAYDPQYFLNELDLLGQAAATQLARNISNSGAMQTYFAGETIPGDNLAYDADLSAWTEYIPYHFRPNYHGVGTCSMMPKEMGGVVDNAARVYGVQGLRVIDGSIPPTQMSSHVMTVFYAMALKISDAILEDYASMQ

How did the KM turn out when `OC[C@H]1OC(O)[C@H](O)[C@@H](O)[C@@H]1O` (stereo partly shown) [glucose] was run?
The KM was “glucose diffuses in and one of the products, namely hydrogen peroxide, must diffuse out”.
